# Results taken from ChEMBL document CHEMBL2057163, “Pyridofuran substituted pyrimidine derivatives as HCV replication (replicase) inhibitors” (Bioorg Med Chem Lett, 2012).
# What was measured:
# Hepatitis C virus = assay: Antiviral activity against Hepatitis C virus 1b con1 infected in human hepatoma cells assessed as decrease in replicon RNA level after 3 days by RT-PCR analysis; type: functional, organism-based, Hepacivirus hominis; details: Con1, 72 h
# [1] = Cytotoxicity against human hepatoma cells after 3 days by MTS assay; type: cell-based
# [2] = Cytotoxicity against human hepatoma cells assessed as decrease in GAPDH RNA level after 3 days by RT-PCR analysis; type: cell-based
# [3] = AUC (0 to 6 hrs) in rat at 10 mg/kg, po; type: ADME, organism-based; parameters: time < 6 hr, dose 10 mg/kg, route oral; details: plasma
# Liver = assay: Drug uptake in rat liver assessed per gram of tissue at 10 mg/kg, po measured at 6 hrs; type: ADME, organism-based; parameters: dose 10 mg/kg, route oral; details: in vivo
Structure (SMILES),EC50 (Hepatitis C virus) [µM],AUC(0-t) at 6 h [3] [µM·h],liver concentration (Liver) [ng/g],CC50 at 72 h [1] [µM],CC50 at 72 h [2] [µM]
CCOc1cc2cc(-c3c(C)nc(Nc4ccccc4)nc3N[C@@H]3C[C@H](CO)[C@@H](O)[C@H]3O)oc2c(C)n1,0.15,–,–,18,24
CCc1nccc2cc(-c3c(Cl)nc(N)nc3N[C@@H]3C[C@H](CO)[C@@H](O)[C@H]3O)oc12,0.02,–,–,24,19
CCc1nccc2cc(-c3c(Cl)nc(N)nc3N[C@@H]3C[C@H](CO)[C@@H](O)[C@H]3O)oc12.Cl,–,0.05,–,–,–
CCc1cc2cc(-c3c(Cl)nc(N)nc3N[C@@H]3C[C@H](CO)[C@@H](O)[C@H]3O)oc2c(CC)n1,0.02,–,–,16,25
CCOCCNc1nc(C)c(-c2cc3cc(CC)ncc3o2)c(N[C@@H]2C[C@H](CO)[C@@H](O)[C@H]2O)n1,0.004,–,–,16,4
CCc1cc2cc(-c3c(Cl)nc(N)nc3N[C@@H]3C[C@H](CO)[C@@H](O)[C@H]3O)oc2cn1.Cl,–,0.07,–,–,–
CCc1cc2cc(-c3c(C)nc(NCC(C)(C)C)nc3N[C@@H]3C[C@H](CO)[C@@H](O)[C@H]3O)oc2cn1.Cl,–,4,315,–,–
CCc1cc2cc(-c3c(C)nc(NCCCC(F)(F)F)nc3N[C@@H]3C[C@H](CO)[C@@H](O)[C@H]3O)oc2cn1.Cl,–,0.9,1000,–,–
Nc1nc(Cl)c(-c2cc3ncccc3o2)c(N[C@@H]2C[C@H](CO)[C@@H](O)[C@H]2O)n1,> 25,–,–,21,–
CCc1cc2cc(-c3c(C)nc(NCC(F)(F)F)nc3N[C@@H]3C[C@H](CO)[C@@H](O)[C@H]3O)oc2cn1,0.02,–,–,15,13
CCc1cc2cc(-c3c(C)nc(NC)nc3N[C@@H]3C[C@H](CO)[C@@H](O)[C@H]3O)oc2cn1,0.03,–,–,> 25,> 25
Cc1nccc2cc(-c3c(Cl)nc(N)nc3N[C@@H]3C[C@H](CO)[C@@H](O)[C@H]3O)oc12,0.12,–,–,> 25,> 25
Cc1cc2cc(-c3c(Cl)nc(N)nc3N[C@@H]3C[C@H](CO)[C@@H](O)[C@H]3O)oc2cn1,0.03,–,–,25,9
CCc1nc(C)cc2cc(-c3c(Cl)nc(N)nc3N[C@@H]3C[C@H](CO)[C@@H](O)[C@H]3O)oc12,0.03,–,–,20,9
Nc1nc(Cl)c(-c2cc3cccnc3o2)c(N[C@@H]2C[C@H](CO)[C@@H](O)[C@H]2O)n1,0.4,–,–,19,–
CCc1cc2cc(-c3c(Cl)nc(N)nc3N[C@@H]3C[C@H](CO)[C@@H](O)[C@H]3O)oc2c(C)n1,0.01,–,–,16,13
CCc1cc2cc(-c3c(Cl)nc(N)nc3N[C@@H]3C[C@H](CO)[C@@H](O)[C@H]3O)oc2cn1,0.01,–,–,22,12

Structure (SMILES),EC50 (Hepatitis C virus) [µM],AUC(0-t) at 6 h [3] [µM·h],liver concentration (Liver) [ng/g],CC50 at 72 h [1] [µM],CC50 at 72 h [2] [µM]
Nc1nc(Cl)c(-c2cc3cnccc3o2)c(N[C@@H]2C[C@H](CO)[C@@H](O)[C@H]2O)n1,1.7,–,–,25,–
CCc1cc2cc(-c3c(Cl)nc(N)nc3N[C@@H]3C[C@H](CO)[C@@H](O)[C@H]3O)oc2c(C)n1.Cl,–,0.01,–,–,–
CCc1cc2cc(-c3c(C)nc(NCC(C)C)nc3N[C@@H]3C[C@H](CO)[C@@H](O)[C@H]3O)oc2cn1.Cl,–,4.5,251,–,–
Nc1nc(Cl)c(-c2cc3ccncc3o2)c(N[C@@H]2C[C@H](CO)[C@@H](O)[C@H]2O)n1,0.07,–,–,25,25
Cc1cc2cc(-c3c(Cl)nc(N)nc3N[C@@H]3C[C@H](CO)[C@@H](O)[C@H]3O)oc2c(C)n1.Cl,0.01,0.01,–,22,15
CCOc1cc2cc(-c3c(C)nc(NCc4cc(OC)cc(OC)c4)nc3N[C@@H]3C[C@H](CO)[C@@H](O)[C@H]3O)oc2c(C)n1.Cl,–,0.35,238,–,–
CCOCCNc1nc(C)c(-c2cc3cc(CC)ncc3o2)c(N[C@@H]2C[C@H](CO)[C@@H](O)[C@H]2O)n1.Cl,–,1.2,492,–,–
Cc1cncc2oc(-c3c(Cl)nc(N)nc3N[C@@H]3C[C@H](CO)[C@@H](O)[C@H]3O)cc12,1.4,–,–,> 25,25
CCCCCNc1nc(C)c(-c2cc3cc(CC)ncc3o2)c(N[C@@H]2C[C@H](CO)[C@@H](O)[C@H]2O)n1,0.03,–,–,3,3
CCc1cc2cc(-c3c(C)nc(NCc4cc(OC)cc(OC)c4)nc3N[C@@H]3C[C@H](CO)[C@@H](O)[C@H]3O)oc2cn1.Cl,–,0.1,20,–,–
CCc1cc2cc(-c3c(C)nc(NCc4cc(OC)cc(OC)c4)nc3N[C@@H]3C[C@H](CO)[C@@H](O)[C@H]3O)oc2cn1,0.003,–,–,20,> 25
CCc1cc2cc(-c3c(C)nc(NCC(C)C)nc3N[C@@H]3C[C@H](CO)[C@@H](O)[C@H]3O)oc2cn1,0.08,–,–,12,7
CCc1cc2cc(-c3c(Cl)nc(N)nc3N[C@@H]3C[C@H](CO)[C@@H](O)[C@H]3O)oc2c(CC)n1.Cl,–,0.17,–,–,–
CCc1cc2cc(-c3c(C)nc(NCCCC(F)(F)F)nc3N[C@@H]3C[C@H](CO)[C@@H](O)[C@H]3O)oc2cn1,0.02,–,–,> 25,17
CCCCCNc1nc(C)c(-c2cc3cc(CC)ncc3o2)c(N[C@@H]2C[C@H](CO)[C@@H](O)[C@H]2O)n1.Cl,–,0.48,31,–,–
CCc1cc2cc(-c3c(C)nc(NCC(C)(C)C)nc3N[C@@H]3C[C@H](CO)[C@@H](O)[C@H]3O)oc2cn1,0.03,–,–,11,10
CCOc1cc2cc(-c3c(C)nc(NCc4cc(OC)cc(OC)c4)nc3N[C@@H]3C[C@H](CO)[C@@H](O)[C@H]3O)oc2c(C)n1,0.002,–,–,> 25,> 25

# Further lines, with some results ahead:
EC50 (Hepatitis C virus) [µM],AUC(0-t) at 6 h [3] [µM·h],liver concentration (Liver) [ng/g],Structure (SMILES),CC50 at 72 h [1] [µM],CC50 at 72 h [2] [µM]
0.06,–,–,CNc1nc(C)c(-c2cc3cc(OC)nc(C)c3o2)c(N[C@@H]2C[C@H](CO)[C@@H](O)[C@H]2O)n1,25,> 25
–,6.5,274,CNc1nc(Cl)c(-c2cc3cc(OC)nc(C)c3o2)c(N[C@@H]2C[C@H](CO)[C@@H](O)[C@H]2O)n1.Cl,–,–
0.02,–,–,CCOc1cc2cc(-c3c(C)nc(NCC(F)(F)F)nc3N[C@@H]3C[C@H](CO)[C@@H](O)[C@H]3O)oc2c(C)n1,> 25,> 25
–,6.8,2330,CCOc1cc2cc(-c3c(C)nc(NCC(C)(C)C)nc3N[C@@H]3C[C@H](CO)[C@@H](O)[C@H]3O)oc2c(C)n1.Cl,–,–
0.01,–,–,COc1cc(CNc2nc(C)c(-c3cc4cc(OC)nc(C)c4o3)c(N[C@@H]3C[C@H](CO)[C@@H](O)[C@H]3O)n2)cc(OC)c1,25,> 25
–,8.9,3020,CCOc1cc2cc(-c3c(C)nc(NCC(F)(F)F)nc3N[C@@H]3C[C@H](CO)[C@@H](O)[C@H]3O)oc2c(C)n1.Cl,–,–
0.009,–,–,CCOc1cc2cc(-c3c(C)nc(NCCOC)nc3N[C@@H]3C[C@H](CO)[C@@H](O)[C@H]3O)oc2c(C)n1,> 25,> 25
0.02,–,–,CCOc1cc2cc(-c3c(C)nc(NCC4CC4)nc3N[C@@H]3C[C@H](CO)[C@@H](O)[C@H]3O)oc2c(C)n1,25,25
–,1.4,238,CCOc1cc2cc(-c3c(C)nc(NC)nc3N[C@@H]3C[C@H](CO)[C@@H](O)[C@H]3O)oc2c(C)n1.Cl,–,–
0.05,–,–,CCOc1cc2cc(-c3c(C)nc(NCC(C)(C)C)nc3N[C@@H]3C[C@H](CO)[C@@H](O)[C@H]3O)oc2c(C)n1,23,12
–,18.5,8980,CCOc1cc2cc(-c3c(C)nc(Nc4ccccc4)nc3N[C@@H]3C[C@H](CO)[C@@H](O)[C@H]3O)oc2c(C)n1.Cl,–,–
0.05,–,–,CCOc1cc2cc(-c3c(C)nc(NC)nc3N[C@@H]3C[C@H](CO)[C@@H](O)[C@H]3O)oc2c(C)n1,–,> 25
0.04,–,–,COc1cc2cc(-c3c(C)nc(NCC(C)(C)C)nc3N[C@@H]3C[C@H](CO)[C@@H](O)[C@H]3O)oc2c(C)n1,21,17
–,0.9,936,CCc1cc2cc(-c3c(C)nc(NC)nc3N[C@@H]3C[C@H](CO)[C@@H](O)[C@H]3O)oc2cn1.Cl,–,–
–,1.1,285,CCOc1cc2cc(-c3c(C)nc(NCCOC)nc3N[C@@H]3C[C@H](CO)[C@@H](O)[C@H]3O)oc2c(C)n1.Cl,–,–
–,0.5,178,COc1cc(CNc2nc(C)c(-c3cc4cc(OC)nc(C)c4o3)c(N[C@@H]3C[C@H](CO)[C@@H](O)[C@H]3O)n2)cc(OC)c1.Cl,–,–
–,0.1,–,COc1cc2cc(-c3c(Cl)nc(N)nc3N[C@@H]3C[C@H](CO)[C@@H](O)[C@H]3O)oc2c(C)n1.Cl,–,–
0.01,–,–,COc1cc2cc(-c3c(Cl)nc(N)nc3N[C@@H]3C[C@H](CO)[C@@H](O)[C@H]3O)oc2c(C)n1,25,–
–,2.7,310,CNc1nc(C)c(-c2cc3cc(OC)nc(C)c3o2)c(N[C@@H]2C[C@H](CO)[C@@H](O)[C@H]2O)n1.Cl,–,–
–,4.4,1180,COc1cc2cc(-c3c(C)nc(NCC(C)(C)C)nc3N[C@@H]3C[C@H](CO)[C@@H](O)[C@H]3O)oc2c(C)n1.Cl,–,–
